# Like-named read-outs stand apart in the source and are kept apart here.
# Columns and labels:
# [1] = Cytotoxicity by XTT staining in replicon cells; conditions: human
# Experimental: (§1) The plates were cultured for 24 hours prior to the addition of compounds. Six serial one half log dilutions of the test articles (high test concentration of 100.0 μM or high test concentration of 1.0 μM) and human interferon-alpha2b (high test 10.0 U/ml) were prepared in cell culture medium and added to the cultured cells in triplicate wells for each dilution. Six wells in the test plates received medium alone as an untreated control. Following 72 hours of culture in the presence of compound, one of the plates was used for the determination of cytotoxicity by staining with XTT and the other for antiviral efficacy by determination of luciferase reporter activity. Cytotoxicity and efficacy data were collected and imported into a customized Excel workbook for determination of the TC50 and EC50 values. […] The y-axis is the percent of virus control and the x-axis is the concentration of drug in μM. […] The y-axis is the percent of virus control and the x-axis is the concentration of drug in M.
# Huh-7 luc/neo ET cells = assay: Cytotoxicity by XTT staining in replicon cells
# Experimental: as §1
# [2] = tested on: HCV Genotype 1a, NS5B Mutation L159F and S282T; assay: microbe, parasite or virus in culture; format: cell-based
# Experimental: (§2) Various patient-derived HCV genotypes containing wild-type and resistance-associated variants were used to determine their relative replication sensitivity to test compounds. Replicon resistance test vectors (RTVs) containing the NS5B genomic regions were prepared using viral RNA isolated from plasma of HCV patients. Each NS5B region was amplified by reverse-transcription polymerase chain reaction and cloned into an HCV replicon RTV which was then transferred by electroporation into Huh-7 cells.
# [3] = tested on: HCV Genotype 1a, NS5B Mutation L159F; assay: microbe, parasite or virus in culture; format: cell-based
# Experimental: as §2
# [4] = tested on: HCV Genotype 1a, NS5B Mutation none; assay: microbe, parasite or virus in culture; format: cell-based
# Experimental: as §2
# [5] = tested on: HCV Genotype 1b, NS5B Mutation C316N; assay: microbe, parasite or virus in culture; format: cell-based
# Experimental: as §2
# [6] = tested on: HCV Genotype 1b, NS5B Mutation none; assay: microbe, parasite or virus in culture; format: cell-based
# Experimental: as §2
# [7] = tested on: HCV Genotype 2a, NS5B Mutation none; assay: microbe, parasite or virus in culture; format: cell-based
# Experimental: as §2
# [8] = tested on: HCV Genotype 2b, NS5B Mutation none; assay: microbe, parasite or virus in culture; format: cell-based
# Experimental: as §2
# [9] = tested on: HCV Genotype 3a-1, NS5B Mutation none; assay: microbe, parasite or virus in culture; format: cell-based
# Experimental: as §2
# [10] = tested on: HCV Genotype 3a-2, NS5B Mutation none; assay: microbe, parasite or virus in culture; format: cell-based
# Experimental: as §2
# [11] = tested on: HCV Genotype 4a, NS5B Mutation none; assay: microbe, parasite or virus in culture; format: cell-based
# Experimental: as §2
# [12] = tested on: HCV Genotype 4d, NS5B Mutation none; assay: microbe, parasite or virus in culture; format: cell-based
# Experimental: as §2
# HCV S282T replicon = assay: microbe, parasite or virus in culture; format: cell-based
# Experimental: (§3) A transient transfection assay was performed to determine the sensitivity of the […] of HCV to test compounds. Huh-7 cells were electroporated in the presence of RNA transcribed from wild type or S282T HCV replicon plasmids from the T7 promoter. The transfected cells were seeded in to 96-well plates at 7.5×10^3 cells per well in Dulbecco's Modified Eagle's medium. After 24 hr of incubation, medium was removed and replaced with fresh medium containing no or various concentrations of test compounds. Following an additional 96-hr incubation, the anti-HCV activity was measured by luciferase endpoint with Britelite™ Plus luminescence reporter gene kit (Perkin Elmer, Shelton, CT). Duplicate plates were treated and incubated in parallel for assessment of cellular toxicity by staining with the tetrazolium dye XTT.
# HCV wild type replicon = assay: microbe, parasite or virus in culture; format: cell-based
# Experimental: as §3
# human hepatocytes = assay: Metabolic studies in primary hepatocytes; format: in vitro ADME; conditions: 10 μM, 2-24 hr
# Experimental: The metabolism of compounds 25, 27 and 5-2, at a concentration of 10 μM, were investigated in fresh primary cultures of human, dog and mouse hepatocytes. Plated hepatocytes from humans (XenoTech, mixed gender, pooled from 10 donors), male Beagle dog (BioreclamationIVT), and male ICR/CD-1 mice (BioreclamationIVT, 8 donors) in 6-well plates with matrigel overlay were incubated in singlet with 10 μM TA. After 2, 4, 6, 8 or 24 hr, intracellular levels of nucleotide prodrugs and their potential metabolites (prodrugs, monophosphates, triphosphates and nucleosides) were quantitated by LC-MS/MS. Concentrations below the lower limit of quantitation (1.5 pmol/10^6 cells for prodrugs, monophosphates and nucleosides and 12 pmol/10^6 cells for triphosphates) were extrapolated from the standard curves.
# [13] = tested on: HCV genotype 1b luciferase reporter replicon; assay: microbe, parasite or virus in culture; format: cell-based; conditions: Hepatitis C virus, HuH-7-Luc/Neo-ET, 72 h, read-out: HCV Replicon EC50/EC95: EC50
# [14] = Hepatitis C virus, read-out: IC50 Value
# [15] = genotype 1a, NS5B L159F and S282T
# [16] = genotype 3a-1, no NS5B mutation
# [17] = genotype 3a-2, no NS5B mutation
# [18] = Hepatitis C virus, 96 h, read-out: IC50 Value
compound,measurement,setting,value
"CC(C)OC(=O)[C@H](C)N[P@](=O)(OCC1O[C@@H](n2cnc3c(N(C)C)nc(N)nc32)[C@](C)(F)[C@@H]1O)Oc1ccccc1 (stereo partly drawn) [Compound 25, isopropyl ((((S)-(2R,3R,4R,5R)-5-(2-amino-6-(dimethylamino)-9H-purin-9-yl)-4-fluoro-3-hydroxy-4-methyltetrahydrofuran-2-yl)methoxy)-phenoxy-phosphoryl)-L-alaninate]",CC50 at 72 h,[1],> 100000 nM
same,CC50,"Huh-7 luc/neo ET cells; read-out: HCV Replicon CC50, XTT, 72 hours",> 100000 nM
same,CC50,"Huh-7 luc/neo ET cells; read-out: TC50, FIG. 3 legend",> 100000 nM
same,cross-resistance to L159F and S282T mutant,[2],"neither 25, 27 nor 5-2 compound showed any evidence of cross-resistance"
same,IC50,[2]; [14],17.2 nM
same,Fold Change in IC50 from Sofosbuvir,[2]; [15],94.0
same,Fold Change in IC95 from Sofosbuvir,[2]; [15],107.0
same,IC95 Value,[2]; [15],158.5 nM
same,cross-resistance to L159F mutant,[3],"neither 25, 27 nor 5-2 compound showed any evidence of cross-resistance"
same,IC50,[3]; [14],5.2 nM
same,Fold Change in IC50 from Sofosbuvir,"[3]; genotype 1a, NS5B L159F",22.0
same,Fold Change in IC95 from Sofosbuvir,"[3]; genotype 1a, NS5B L159F",26.4
same,IC95 Value,"[3]; genotype 1a, NS5B L159F",40.4 nM
same,IC50,[4]; [14],4.4 nM
same,Fold Change in IC50 from Sofosbuvir,"[4]; genotype 1a, no NS5B mutation",14.2
same,Fold Change in IC95 from Sofosbuvir,"[4]; genotype 1a, no NS5B mutation",16.2
same,IC95 Value,"[4]; genotype 1a, no NS5B mutation",31.3 nM
same,cross-resistance to C316N mutant,[5],"neither 25, 27 nor 5-2 compound showed any evidence of cross-resistance"
same,IC50,[5]; [14],3.2 nM
same,Fold Change in IC50 from Sofosbuvir,"[5]; genotype 1b, NS5B C316N",23.1
same,Fold Change in IC95 from Sofosbuvir,"[5]; genotype 1b, NS5B C316N",26.2
same,IC95 Value,"[5]; genotype 1b, NS5B C316N",18.1 nM
same,IC50,[6]; [14],5.9 nM
same,Fold Change in IC50 from Sofosbuvir,"[6]; genotype 1b, no NS5B mutation",1.0
same,Fold Change in IC95 from Sofosbuvir,"[6]; genotype 1b, no NS5B mutation",20.0
same,IC95 Value,"[6]; genotype 1b, no NS5B mutation",32.0 nM
same,IC50,[7]; [14],2.7 nM
same,Fold Change in IC50 from Sofosbuvir,"[7]; genotype 2a, no NS5B mutation",8.4
same,Fold Change in IC95 from Sofosbuvir,"[7]; genotype 2a, no NS5B mutation",8.8
same,IC95 Value,"[7]; genotype 2a, no NS5B mutation",22.2 nM
same,IC50,[8]; [14],3 nM
same,Fold Change in IC50 from Sofosbuvir,"[8]; genotype 2b, no NS5B mutation",15.2
same,Fold Change in IC95 from Sofosbuvir,"[8]; genotype 2b, no NS5B mutation",19.9
same,IC95 Value,"[8]; genotype 2b, no NS5B mutation",14.9 nM
same,IC50,[9]; [14],5.1 nM
same,Fold Change in IC50 from Sofosbuvir,[9]; [16],24.5
same,Fold Change in IC95 from Sofosbuvir,[9]; [16],24.8
same,IC95 Value,[9]; [16],27.8 nM
same,IC50,[10]; [14],4.7 nM
same,Fold Change in IC50 from Sofosbuvir,[10]; [17],26.3
same,Fold Change in IC95 from Sofosbuvir,[10]; [17],33.4
same,IC95 Value,[10]; [17],24.2 nM
same,IC50,[11]; [14],4.6 nM
same,Fold Change in IC50 from Sofosbuvir,"[11]; genotype 4a, no NS5B mutation",16.2
same,Fold Change in IC95 from Sofosbuvir,"[11]; genotype 4a, no NS5B mutation",20.7
same,IC95 Value,"[11]; genotype 4a, no NS5B mutation",33.0 nM
same,IC50,[12]; [18],5.9 nM
same,Fold Change in IC50 from Sofosbuvir,"[12]; genotype 4d, no NS5B mutation",16.0
same,Fold Change in IC95 from Sofosbuvir,"[12]; genotype 4d, no NS5B mutation",23.1
same,IC95 Value,"[12]; genotype 4d, no NS5B mutation",44.2 nM
same,cross-resistance to S282T variant,HCV S282T replicon,"neither 25, 27, nor 5-2 compounds showed any evidence of cross-resistance"
same,IC50,HCV S282T replicon; [18],< 1 nM
same,Fold Change in IC50 from Sofosbuvir,HCV S282T replicon; NS5B Mutation S282T,>278
same,Fold Change in IC95 from Sofosbuvir,HCV S282T replicon; NS5B Mutation S282T,>106.4
same,IC95 Value,"HCV S282T replicon; NS5B Mutation S282T, transient assay, 96-hr",9.4 nM
same,IC95 Value,HCV wild type replicon,2.7 nM
same,IC50,HCV wild type replicon; [18],< 1 nM
same,Fold Change in IC50 from Sofosbuvir,HCV wild type replicon; NS5B Mutation None,>36.4
same,Fold Change in IC95 from Sofosbuvir,HCV wild type replicon; NS5B Mutation None,80.7
same,predominant metabolite observed in cultured human hepatocytes,human hepatocytes,β-D-2′-deoxy-2′-α-fluoro-2′-β-methyl-guanine triphosphate
same,EC50,[13],4 nM

# — patent US12084473B2, “β-D-2′-deoxy-2′-α-fluoro-2′-β-C-substituted-2-modified-N6-substituted purine nucleotides for HCV treatment” (Atea Pharmaceuticals, Inc., priority 2015, dated 2024)
